pIC50: −log10 of the molar value. Each block holds one compound with its values, some of them ahead of it.
Legend:
[1] = tested on: MDA-MB-231; experiment: Induction of apoptosis in human MDA-MB-231 cells assessed as necrotic cells at 1 uM measured after 24 hrs by Annexin V-FITC/PI staining based flowcytometry (reference value: 0.94%); type: functional
[2] = tested on: SH-SY5Y; experiment: Induction of apoptosis in human SH-SY5Y cells assessed as viable cells at 1 uM measured after 24 hrs by Annexin V-FITC/PI staining based flowcytometry (reference value: 77.05%); type: functional; settings: read-out: Activity
[3] = tested on: SH-SY5Y; experiment: Induction of apoptosis in human SH-SY5Y cells assessed as necrotic cells at 1 uM measured after 24 hrs by Annexin V-FITC/PI staining based flowcytometry (reference value: 7.81%); type: functional
[4] = tested on: SH-SY5Y; experiment: cells; type: functional, cell-based; settings: Homo sapiens, 72 h
Description: Antiproliferative activity against human SH-SY5Y cells harboring ALK F1174L mutant assessed as inhibition of cell proliferation measured after 72 hrs by CCK8 assay

[5] = tested on: HepG2; experiment: cells; type: functional, cell-based; settings: Homo sapiens, HepG2, 72 h
Description: Antiproliferative activity against human HepG2 cells assessed as inhibition of cell proliferation measured after 72 hrs by CCK8 assay

[6] = tested on: MDA-MB-231; experiment: Induction of apoptosis in human MDA-MB-231 cells assessed as viable cells at 1 uM measured after 24 hrs by Annexin V-FITC/PI staining based flowcytometry (reference value: 93.14%); type: functional; settings: read-out: Activity
[7] = tested on: NCI-H2228; experiment: cells; type: functional, cell-based; settings: Homo sapiens, NCI-H2228, 72 h
[8] = tested on: SH-SY5Y; experiment: Induction of apoptosis in human SH-SY5Y cells assessed as early apoptotic cells at 1 uM measured after 24 hrs by Annexin V-FITC/PI staining based flowcytometry (reference value: 0.82%); type: functional
[9] = cells; type: functional, cell-based; settings: Homo sapiens, SKNBE2, 72 h
Description: Antiproliferative activity against human SKNBE2 cells harboring wild type ALK assessed as inhibition of cell proliferation measured after 72 hrs by CCK8 assay

[10] = tested on: MDA-MB-231; experiment: Induction of apoptosis in human MDA-MB-231 cells assessed as early apoptotic cells at 1 uM measured after 24 hrs by Annexin V-FITC/PI staining based flowcytometry ( Rvb = […]%); type: functional
[11] = tested on: MDA-MB-231; experiment: cells; type: functional, cell-based; settings: Homo sapiens, MDA-MB-231, 72 h
Description: Antiproliferative activity against human MDA-MB-231 cells assessed as inhibition of cell proliferation measured after 72 hrs by CCK8 assay

[12] = tested on: MDA-MB-231; experiment: Induction of apoptosis in human MDA-MB-231 cells assessed as late apoptotic cells at 1 uM measured after 24 hrs by Annexin V-FITC/PI staining based flowcytometry ( Rvb = 5.28%); type: functional
[13] = tested on: SH-SY5Y; experiment: Induction of apoptosis in human SH-SY5Y cells assessed as late apoptotic cells at 1 uM measured after 24 hrs by Annexin V-FITC/PI staining based flowcytometry (reference value: 14.32%); type: functional
[14] = tested on: A549; experiment: Potency index, ratio of crizotinib IC50 to test compound IC50 for human A549 cells assessed as inhibition of cell proliferation measured after 72 hrs by CCK8 assay; type: functional
[15] = tested on: HepG2; experiment: Potency index, ratio of crizotinib IC50 to test compound IC50 for human HepG2 cells assessed as inhibition of cell proliferation measured after 72 hrs by CCK8 assay; type: functional
[16] = tested on: MDA-MB-231; experiment: Potency index, ratio of ceritinib IC50 to test compound IC50 for human MDA-MB-231 cells assessed as inhibition of cell proliferation measured after 72 hrs by CCK8 assay; type: functional
[17] = Potency index, ratio of ceritinib IC50 to test compound IC50 for human SKNBE2 cells harboring wild type ALK assessed as inhibition of cell proliferation measured after 72 hrs by CCK8 assay; type: functional
[18] = tested on: SH-SY5Y; experiment: Potency index, ratio of crizotinib IC50 to test compound IC50 for human SH-SY5Y cells harboring ALK F1174L mutant assessed as inhibition of cell proliferation measured after 72 hrs by CCK8 assay; type: functional
[19] = molecular target: T1, Protein deacetylase HDAC6 (Homo sapiens, UniProt Q9UBN7)
T1 sequence (Q9UBN7 whole entry): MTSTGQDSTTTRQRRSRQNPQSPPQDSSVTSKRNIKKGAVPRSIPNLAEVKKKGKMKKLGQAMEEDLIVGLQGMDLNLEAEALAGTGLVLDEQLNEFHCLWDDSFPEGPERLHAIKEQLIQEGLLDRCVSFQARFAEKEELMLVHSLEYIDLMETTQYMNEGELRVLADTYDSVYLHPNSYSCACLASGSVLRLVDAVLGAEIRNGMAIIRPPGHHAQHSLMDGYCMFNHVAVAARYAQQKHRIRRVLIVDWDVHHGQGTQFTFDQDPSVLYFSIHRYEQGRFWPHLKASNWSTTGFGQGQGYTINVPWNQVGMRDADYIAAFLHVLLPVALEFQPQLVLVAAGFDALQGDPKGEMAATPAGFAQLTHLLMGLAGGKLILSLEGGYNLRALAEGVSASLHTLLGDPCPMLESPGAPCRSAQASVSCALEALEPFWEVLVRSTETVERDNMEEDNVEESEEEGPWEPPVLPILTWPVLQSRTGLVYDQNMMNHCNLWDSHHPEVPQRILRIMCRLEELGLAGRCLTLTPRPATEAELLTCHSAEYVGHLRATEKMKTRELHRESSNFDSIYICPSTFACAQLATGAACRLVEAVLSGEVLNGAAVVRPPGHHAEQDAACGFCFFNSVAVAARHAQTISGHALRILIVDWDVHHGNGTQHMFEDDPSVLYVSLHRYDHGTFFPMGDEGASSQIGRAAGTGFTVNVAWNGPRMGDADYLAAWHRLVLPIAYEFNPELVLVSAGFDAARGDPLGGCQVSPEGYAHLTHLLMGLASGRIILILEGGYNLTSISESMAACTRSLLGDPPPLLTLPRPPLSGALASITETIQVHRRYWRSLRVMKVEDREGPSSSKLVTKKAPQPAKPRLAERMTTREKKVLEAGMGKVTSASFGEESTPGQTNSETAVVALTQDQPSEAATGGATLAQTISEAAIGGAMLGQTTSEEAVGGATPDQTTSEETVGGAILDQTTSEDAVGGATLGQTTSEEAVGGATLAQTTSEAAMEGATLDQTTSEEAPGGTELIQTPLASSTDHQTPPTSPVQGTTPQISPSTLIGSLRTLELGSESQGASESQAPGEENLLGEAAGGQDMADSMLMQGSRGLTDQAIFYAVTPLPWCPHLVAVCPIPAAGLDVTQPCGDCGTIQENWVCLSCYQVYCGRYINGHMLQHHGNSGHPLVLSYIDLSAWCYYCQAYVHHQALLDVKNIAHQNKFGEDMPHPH
Description: Inhibition of HDAC6 (unknown origin)

[20] = tested on: SH-SY5Y; experiment: Potency index, ratio of ceritinib IC50 to test compound IC50 for human SH-SY5Y cells harboring ALK F1174L mutant assessed as inhibition of cell proliferation measured after 72 hrs by CCK8 assay; type: functional
[21] = molecular target: T2, ALK tyrosine kinase receptor (Homo sapiens, UniProt Q9UM73); experiment: Inhibition of ALK (unknown origin) at 100 nM preincubated for 10 mins followed by addition of substrate and ATP for 25 mins by caliper EZ reader method; settings: time 35.0 min
Target sequence in this assay (Q9UM73 19-1620 limits assumed): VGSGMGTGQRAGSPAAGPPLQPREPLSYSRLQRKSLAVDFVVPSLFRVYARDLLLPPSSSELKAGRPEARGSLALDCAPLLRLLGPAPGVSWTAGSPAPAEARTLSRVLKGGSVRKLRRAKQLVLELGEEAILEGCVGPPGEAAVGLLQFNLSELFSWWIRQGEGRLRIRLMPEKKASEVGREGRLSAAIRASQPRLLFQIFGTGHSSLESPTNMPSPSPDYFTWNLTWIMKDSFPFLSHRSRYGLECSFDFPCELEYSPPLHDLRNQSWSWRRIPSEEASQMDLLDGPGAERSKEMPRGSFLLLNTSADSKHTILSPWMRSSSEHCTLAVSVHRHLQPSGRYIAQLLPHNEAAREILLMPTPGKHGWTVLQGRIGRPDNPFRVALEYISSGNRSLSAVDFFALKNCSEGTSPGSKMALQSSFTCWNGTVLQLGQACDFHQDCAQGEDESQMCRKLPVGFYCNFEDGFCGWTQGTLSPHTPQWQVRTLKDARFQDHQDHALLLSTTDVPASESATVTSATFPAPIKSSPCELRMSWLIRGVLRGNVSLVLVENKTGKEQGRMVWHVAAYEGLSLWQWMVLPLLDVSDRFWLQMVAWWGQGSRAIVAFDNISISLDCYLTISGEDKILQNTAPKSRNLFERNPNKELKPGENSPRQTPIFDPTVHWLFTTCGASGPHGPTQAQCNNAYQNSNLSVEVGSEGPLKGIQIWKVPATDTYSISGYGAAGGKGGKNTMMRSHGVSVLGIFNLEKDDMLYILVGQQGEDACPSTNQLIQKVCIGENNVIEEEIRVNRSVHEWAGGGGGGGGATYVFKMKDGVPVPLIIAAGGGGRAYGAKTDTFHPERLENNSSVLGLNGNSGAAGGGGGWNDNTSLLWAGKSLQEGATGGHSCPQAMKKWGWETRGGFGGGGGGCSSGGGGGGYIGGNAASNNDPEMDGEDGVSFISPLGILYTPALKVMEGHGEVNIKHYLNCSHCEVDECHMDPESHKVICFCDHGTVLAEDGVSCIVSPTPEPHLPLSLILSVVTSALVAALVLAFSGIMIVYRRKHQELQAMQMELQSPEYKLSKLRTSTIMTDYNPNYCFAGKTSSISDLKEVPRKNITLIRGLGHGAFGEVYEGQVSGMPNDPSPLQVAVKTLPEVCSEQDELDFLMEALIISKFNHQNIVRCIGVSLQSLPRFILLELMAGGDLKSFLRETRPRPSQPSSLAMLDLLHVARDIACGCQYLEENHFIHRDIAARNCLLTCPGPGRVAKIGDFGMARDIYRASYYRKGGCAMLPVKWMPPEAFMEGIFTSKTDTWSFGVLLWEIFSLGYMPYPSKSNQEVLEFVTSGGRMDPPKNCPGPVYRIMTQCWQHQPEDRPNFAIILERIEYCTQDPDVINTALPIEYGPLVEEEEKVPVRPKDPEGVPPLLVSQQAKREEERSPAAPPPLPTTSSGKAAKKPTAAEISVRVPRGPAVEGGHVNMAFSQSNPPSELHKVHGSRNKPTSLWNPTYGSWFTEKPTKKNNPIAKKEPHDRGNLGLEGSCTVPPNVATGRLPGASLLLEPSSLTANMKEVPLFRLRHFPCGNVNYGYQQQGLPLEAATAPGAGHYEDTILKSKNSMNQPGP

[22] = molecular target: ALK tyrosine kinase receptor (Homo sapiens, UniProt Q9UM73, L1196M)
Chain of ALK tyrosine kinase receptor (Homo sapiens, UniProt Q9UM73, L1196M) (Q9UM73 19-1620 L1196M limits assumed): as the sequence (Q9UM73 19-1620 limits assumed) above, with L1178M counted along it

[23] = tested on: NCI-H2228; experiment: Potency index, ratio of ceritinib IC50 to test compound IC50 for human NCI-H2228 cells harboring EML4/ALK […] assessed as inhibition of cell proliferation measured after 72 hrs by CCK8 assay; type: functional
[24] = tested on: NCI-H2228; experiment: Potency index, ratio of crizotinib IC50 to test compound IC50 for human NCI-H2228 cells harboring EML4/ALK […] assessed as inhibition of cell proliferation measured after 72 hrs by CCK8 assay; type: functional
[25] = molecular target: T3, Histone deacetylase 1 (Homo sapiens, UniProt Q13547); experiment: biochemical
T3 sequence (Q13547 whole entry): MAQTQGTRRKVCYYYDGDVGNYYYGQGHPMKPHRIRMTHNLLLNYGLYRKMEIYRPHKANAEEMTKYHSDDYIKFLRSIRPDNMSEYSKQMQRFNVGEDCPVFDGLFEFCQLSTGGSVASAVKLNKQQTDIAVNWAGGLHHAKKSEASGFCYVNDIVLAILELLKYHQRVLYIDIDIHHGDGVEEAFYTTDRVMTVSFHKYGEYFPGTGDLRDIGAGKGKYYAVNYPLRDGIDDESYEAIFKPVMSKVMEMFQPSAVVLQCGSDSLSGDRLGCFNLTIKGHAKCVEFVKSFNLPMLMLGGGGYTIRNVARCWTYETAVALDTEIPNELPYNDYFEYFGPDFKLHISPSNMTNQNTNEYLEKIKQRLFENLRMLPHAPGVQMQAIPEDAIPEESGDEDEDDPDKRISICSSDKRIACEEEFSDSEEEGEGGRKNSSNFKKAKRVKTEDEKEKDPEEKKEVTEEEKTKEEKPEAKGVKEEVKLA
Description: Inhibition of recombinant human C-terminal His/FLAG-tagged HDAC1 (1 to 482 residues) expressed in Sf9 insect cells using Ac-peptide-AMC as substrate preincubated for 15 mins followed by addition of substrate and trypsin measured by flourescence assay

[26] = Potency index, ratio of crizotinib IC50 to test compound IC50 for human SKNBE2 cells harboring wild type ALK assessed as inhibition of cell proliferation measured after 72 hrs by CCK8 assay; type: functional
[27] = molecular target: T2, ALK tyrosine kinase receptor
Target sequence in this assay (Q9UM73 whole entry): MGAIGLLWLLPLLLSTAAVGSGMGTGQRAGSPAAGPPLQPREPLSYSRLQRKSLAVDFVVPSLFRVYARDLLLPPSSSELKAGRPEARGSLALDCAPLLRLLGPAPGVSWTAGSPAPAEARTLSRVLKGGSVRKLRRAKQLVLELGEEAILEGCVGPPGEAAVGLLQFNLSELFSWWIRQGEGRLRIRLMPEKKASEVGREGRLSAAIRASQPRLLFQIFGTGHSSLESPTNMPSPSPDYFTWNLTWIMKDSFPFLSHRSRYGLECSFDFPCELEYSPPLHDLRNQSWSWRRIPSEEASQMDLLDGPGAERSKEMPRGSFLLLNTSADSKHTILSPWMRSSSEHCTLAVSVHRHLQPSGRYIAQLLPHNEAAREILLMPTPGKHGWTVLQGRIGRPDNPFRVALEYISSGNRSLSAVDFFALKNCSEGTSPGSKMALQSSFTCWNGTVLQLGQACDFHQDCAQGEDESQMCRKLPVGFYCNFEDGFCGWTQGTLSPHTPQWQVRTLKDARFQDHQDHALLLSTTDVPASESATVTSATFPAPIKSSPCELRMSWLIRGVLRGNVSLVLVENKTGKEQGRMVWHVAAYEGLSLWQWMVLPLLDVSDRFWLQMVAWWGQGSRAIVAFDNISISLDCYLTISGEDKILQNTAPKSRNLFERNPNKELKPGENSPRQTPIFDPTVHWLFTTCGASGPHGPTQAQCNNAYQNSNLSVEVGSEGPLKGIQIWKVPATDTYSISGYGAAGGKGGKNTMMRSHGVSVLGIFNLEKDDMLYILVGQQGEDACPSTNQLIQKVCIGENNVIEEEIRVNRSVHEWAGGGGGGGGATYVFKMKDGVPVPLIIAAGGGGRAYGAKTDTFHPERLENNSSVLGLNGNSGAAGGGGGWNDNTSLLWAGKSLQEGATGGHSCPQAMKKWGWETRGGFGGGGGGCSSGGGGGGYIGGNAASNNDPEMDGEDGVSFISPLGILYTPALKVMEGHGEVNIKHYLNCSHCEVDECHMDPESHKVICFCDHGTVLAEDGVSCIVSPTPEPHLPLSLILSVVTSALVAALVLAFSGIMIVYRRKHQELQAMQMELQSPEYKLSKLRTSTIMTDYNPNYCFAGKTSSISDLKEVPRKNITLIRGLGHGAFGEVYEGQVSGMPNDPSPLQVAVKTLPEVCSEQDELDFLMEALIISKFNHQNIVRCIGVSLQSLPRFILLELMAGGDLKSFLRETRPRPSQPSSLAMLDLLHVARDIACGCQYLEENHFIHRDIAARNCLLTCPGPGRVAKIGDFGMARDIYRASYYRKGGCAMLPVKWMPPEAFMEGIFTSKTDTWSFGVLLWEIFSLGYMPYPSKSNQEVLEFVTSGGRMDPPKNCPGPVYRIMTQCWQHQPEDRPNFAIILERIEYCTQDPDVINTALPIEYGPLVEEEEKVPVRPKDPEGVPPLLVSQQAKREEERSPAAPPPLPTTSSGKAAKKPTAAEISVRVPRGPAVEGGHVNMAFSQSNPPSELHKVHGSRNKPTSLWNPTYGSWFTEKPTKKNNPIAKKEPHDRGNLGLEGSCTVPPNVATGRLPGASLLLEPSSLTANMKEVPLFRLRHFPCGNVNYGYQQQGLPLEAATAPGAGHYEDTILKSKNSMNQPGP
Description: Inhibition of ALK (unknown origin) preincubated for 10 mins followed by addition of substrate and ATP for 25 mins by caliper EZ reader method

[28] = molecular target: T3, Histone deacetylase 1; settings: Sf9, dose 10.0 nM, time 15.0 min
[29] = tested on: A549; experiment: Potency index, ratio of ceritinib IC50 to test compound IC50 for human A549 cells assessed as inhibition of cell proliferation measured after 72 hrs by CCK8 assay; type: functional
[30] = tested on: A549; experiment: cells; type: functional, cell-based; settings: Homo sapiens, A549, 72 h
Description: Antiproliferative activity against human A549 cells assessed as inhibition of cell proliferation measured after 72 hrs by CCK8 assay

[31] = molecular target: Histone deacetylase 2 (Homo sapiens, UniProt Q92769)
Chain of Histone deacetylase 2 (Q92769 whole entry): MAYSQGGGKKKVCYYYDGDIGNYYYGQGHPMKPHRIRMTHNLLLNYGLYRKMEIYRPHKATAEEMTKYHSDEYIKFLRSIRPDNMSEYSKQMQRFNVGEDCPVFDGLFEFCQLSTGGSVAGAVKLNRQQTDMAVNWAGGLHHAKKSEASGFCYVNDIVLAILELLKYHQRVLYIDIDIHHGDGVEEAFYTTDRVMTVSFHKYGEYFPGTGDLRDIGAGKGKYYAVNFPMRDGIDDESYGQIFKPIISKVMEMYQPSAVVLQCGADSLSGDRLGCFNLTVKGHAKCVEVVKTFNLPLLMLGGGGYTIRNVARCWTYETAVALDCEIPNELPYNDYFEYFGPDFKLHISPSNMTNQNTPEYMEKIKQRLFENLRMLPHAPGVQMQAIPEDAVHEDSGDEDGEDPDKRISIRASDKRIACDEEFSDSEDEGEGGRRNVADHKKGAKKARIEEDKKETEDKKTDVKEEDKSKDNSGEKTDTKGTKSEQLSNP
Description: Inhibition of HDAC2 (unknown origin)

[32] = molecular target: T3, Histone deacetylase 1; settings: Sf9, dose 100.0 nM, time 15.0 min
[33] = molecular target: ALK tyrosine kinase receptor (Homo sapiens, UniProt Q9UM73, G1202R)
Chain of ALK tyrosine kinase receptor (Homo sapiens, UniProt Q9UM73, G1202R) (Q9UM73 19-1620 G1202R limits assumed): as the sequence (Q9UM73 19-1620 limits assumed) above, with G1184R counted along it

[34] = tested on: MDA-MB-231; experiment: Potency index, ratio of crizotinib IC50 to test compound IC50 for human MDA-MB-231 cells assessed as inhibition of cell proliferation measured after 72 hrs by CCK8 assay; type: functional
[35] = molecular target: T2, ALK tyrosine kinase receptor; experiment: Inhibition of ALK (unknown origin) at 10 nM preincubated for 10 mins followed by addition of substrate and ATP for 25 mins by caliper EZ reader method; settings: time 35.0 min
Target sequence in this assay (Q9UM73 19-1620 limits assumed): as the sequence (Q9UM73 19-1620 limits assumed) above

[36] = tested on: HepG2; experiment: Potency index, ratio of ceritinib IC50 to test compound IC50 for human HepG2 cells assessed as inhibition of cell proliferation measured after 72 hrs by CCK8 assay; type: functional

pIC50 [4]: 6.43
pIC50 [5]: 5.39
pIC50 [7]: 5.70
pIC50 [9]: 5.58
pIC50 [11]: 5.74
Structure (SMILES): Cc1cc(Nc2ncc(Cl)c(Nc3ccccc3S(=O)(=O)C(C)C)n2)c(OC(C)C)cc1C1CCNCC1 [CERITINIB]
Activity [1]: 1.55%
viability at 1 µM [2]: 81.9%
Activity [3]: 11.77%
viability at 1 µM [6]: 90.2%
Activity [8]: 2.07%
Activity [10]: 1.17%
Activity [12]: 7.07%
Activity [13]: 20.4%

pIC50 [19]: 8.17
pIC50 [4]: 6.47
pIC50 [5]: 6.04
inhibition [21]: 103%
pIC50 [22]: 8.62
pIC50 [7]: 6.74
pIC50 [25]: 7.92
pIC50 [27]: 8.37
pIC50 [9]: 6.66
inhibition [28]: 49%
pIC50 [11]: 6.41
pIC50 [30]: 5.47
pIC50 [31]: 7.82
inhibition [32]: 100%
pIC50 [33]: 9.00
inhibition [35]: 84.5%
Structure (SMILES): CC(C)S(=O)(=O)c1ccccc1Nc1nc(Nc2ccc(C(=O)NCCCCCCC(=O)NO)cc2)ncc1Cl
Ratio IC50 [14]: 3
Ratio IC50 [15]: 3
Ratio IC50 [16]: 3
Ratio IC50 [17]: 3
Ratio IC50 [18]: 3
Ratio IC50 [20]: 3
Ratio IC50 [23]: 3
Ratio IC50 [24]: 3
Ratio IC50 [26]: 3
Ratio IC50 [29]: 3
Ratio IC50 [34]: 3
Ratio IC50 [36]: 3

From ChEMBL document CHEMBL4828709, “Discovery of 2,4-pyrimidinediamine derivatives as potent dual inhibitors of ALK and HDAC” (Eur J Med Chem, 2021)
